According to article PMC9953885 (Biosensors, 2023):
Counter-ions that a name gives are not always drawn.

The compounds below were run against T1, human pancreatic lipase (hPL) (Homo sapiens, UniProt P16233). Conditions: 10 µM; inhibitor.
T1 construct: gene PNLIP
T1 sequence (P16233 17-465): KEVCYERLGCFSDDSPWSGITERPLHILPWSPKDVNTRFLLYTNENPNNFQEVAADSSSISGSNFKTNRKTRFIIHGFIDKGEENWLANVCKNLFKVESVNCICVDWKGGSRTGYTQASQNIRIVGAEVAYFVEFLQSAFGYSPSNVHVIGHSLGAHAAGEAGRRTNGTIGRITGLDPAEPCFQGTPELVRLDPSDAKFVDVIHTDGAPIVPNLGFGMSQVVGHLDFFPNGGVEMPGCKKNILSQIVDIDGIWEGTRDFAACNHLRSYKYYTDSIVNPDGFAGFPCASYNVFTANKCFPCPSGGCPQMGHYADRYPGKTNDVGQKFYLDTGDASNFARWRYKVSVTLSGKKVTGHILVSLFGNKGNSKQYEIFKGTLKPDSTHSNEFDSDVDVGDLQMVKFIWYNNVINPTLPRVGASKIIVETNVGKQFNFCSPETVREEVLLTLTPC
Description: First, we evaluated the inhibitory effect of 94 natural products derived from herbs and 94 drugs on hPL. In our high-throughput screening system, 1 ug/mL hPL was used, and the final concentration of the 94 natural products derived from herbs and 94 drugs used was 10 μM. Other conditions were the same as in the selectivity experiments. […] RLE was incubated with hPL and various enzymes, such as hCES1A, hCES2A, CA, AchE, BchE, 5-HKE, lysozyme, trypsin, thrombin, α-CT, FAP, PREP, pepsin, α-amylase, plasmin, notum and hSA, in a 100 µL incubation mixture consisting of Tris-HCl (pH = 7.4, 25 mM), NaCl (150 mM), CaCl2 (1 mM) and porcine bile salt (0.1 mg/mL) at a concentration of 1.5 µg/mL. The reaction was initiated by adding RLE to the preincubated enzyme mixture at 37 °C, and metabolite formation was determined by measuring the fluorescence intensity of resorufin at 590 nm. In addition, several amino acids (IIe, His, Trp, Val, Leu, Tyr, Ala, Thr, Pro, Asp, Lys, Met, Cys, Ser, Phe, Gly, Glu and Gln), ions (Ni^2+, Ca^2+, Na^+, K^+, Cu^2+, Zn^2+, Mg^2+, NH4^+, Cu^+, Fe^2+ and CN^-) and GSH were measured. The concentration of these interfering factors was 5 μM. […] In this case, a visual high-throughput assay was established to screen hPL inhibitors, using RLE as a fluorogenic substrate in a 96-well microplate.
For `CC(C)=CCOc1c2occc2cc2ccc(=O)oc12` [Imperatorin], the “% of control remaining” value was 75.61%. With `Oc1cc(O)c2c(c1)OC(c1ccc(O)c(O)c1)C(OC1(c3ccc(O)c(O)c3)Oc3cc(O)cc(O)c3C(O)C1O)C2` (stereo not drawn) [Procyanidin] the “% of control remaining” value was 5.72%. With `CCC(=O)O[C@H]1CC[C@H]2[C@@H]3CCC4=CC(=O)CC[C@]4(C)[C@H]3CC[C@]12C` [Testosterone propionate] the “% of control remaining” value was 65.37%. In the case of `C=C[C@H]1CN2CC[C@H]1C[C@@H]2[C@@H](O)c1ccnc2ccc(OC)cc12` [Quinidine], the “% of control remaining” value is reported as 100.77%. For `O=c1c(O)c(-c2ccc(O)c(O)c2)oc2cc(O)cc(O)c12` [Quercetin], the “% of control remaining” value was 47.29%. With `CCOC(=O)C1=C(C)NC(C)=C(C(=O)OC)C1c1cccc([N+](=O)[O-])c1` (stereo not drawn) [Nitrendipine] the “% of control remaining” value was 92.86%. In the case of `COc1ccc2cc([C@H](C)C(=O)O)ccc2c1` [Naproxen], the “% of control remaining” value is reported as 116.02%. With `O=C(O)Cc1ccccc1Nc1c(Cl)cccc1Cl` [diclofenzc] the “% of control remaining” value was 97.62%. `O=c1c(O)c(-c2ccc(O)cc2)oc2c(O)c(O)cc(O)c12` [Herbacetin] was tested, and the “% of control remaining” value was 83.59%. For `COCCOC(=O)C1=C(C)NC(C)=C(C(=O)OC(C)C)C1c1cccc([N+](=O)[O-])c1` (stereo not drawn) [Nimodipine], the “% of control remaining” value was 98.69%. For `C#C[C@]1(O)CC[C@H]2[C@@H]3CCC4=CC(=O)CCC4=C3C=C[C@@]21CC` [Gestrinone], the “% of control remaining” value was 66.72%. In the case of `COc1c2ccoc2cc2oc(=O)ccc12` [Bergapten], the “% of control remaining” value is reported as 54.11%. `CN/C(=N\CCSCc1nc[nH]c1C)NC#N` [Cimetidine] was tested, and the “% of control remaining” value was 111.11%. With `O=C(O)/C=C/c1ccc(O)cc1` [p-Coumaric acid] the “% of control remaining” value was 98.98%. With `CCc1cc(C(N)=S)ccn1` [Ethionamide] the “% of control remaining” value was 91.71%. `C=C1CC[C@@H]2[C@](C)(CO)[C@H](O)CC[C@@]2(C)[C@H]1C/C=C1\C=COC1=O` [Dehydroandrographolide] was tested, and the “% of control remaining” value was 89.55%. For `CCOC(=O)N1CCC(=C2c3ccc(Cl)cc3CCc3cccnc32)CC1` [Loratadine], the “% of control remaining” value was 96.14%. `COc1ccc2[nH]c([S+]([O-])Cc3ncc(C)c(OC)c3C)nc2c1` (stereo not drawn) [Omeprazole] was tested, and the “% of control remaining” value was 94.84%. In the case of `O=C(Cc1ccccc1F)C1CC1` [Cyclopropyl 2-fluorobenzyl ketone], the “% of control remaining” value is reported as 117.10%. For `COC(=O)[C@@]1(C)CC[C@]2(C(=O)O)CC[C@]3(C)C(=CC[C@@H]4[C@@]5(C)C[C@H](O)[C@H](O)[C@@](C)(CO)[C@@H]5CC[C@]43C)[C@@H]2C1` [phytolaccagenin], the “% of control remaining” value was 85.42%. With `CCCN(CCC)S(=O)(=O)c1ccc(C(=O)O)cc1` [Probenecid] the “% of control remaining” value was 93.75%. With `COC(=O)C[C@](O)(CCCC(C)(C)O)C(=O)O[C@@H]1C(OC)=C[C@]23CCCN2CCc2cc4c(cc2[C@H]13)OCO4` [Homoharringtonine] the “% of control remaining” value was 74.77%. For `NS(=O)(=O)c1cc2c(cc1Cl)NCNS2(=O)=O` [Hydrochlorothiazide], the “% of control remaining” value was 99.42%. `CCC1=C(C)CN(C(=O)NCCc2ccc(S(=O)(=O)NC(=O)N[C@H]3CC[C@H](C)CC3)cc2)C1=O` [Glimepiride] was tested, and the “% of control remaining” value was 90.05%. In the case of `COCCc1ccc(OCC(O)CNC(C)C)cc1` (stereo not drawn) [Metoprolol tartrate], the “% of control remaining” value is reported as 135.23%. With `CN1CCN(C2=Nc3cc(Cl)ccc3Nc3ccccc32)CC1` [Clozapine] the “% of control remaining” value was 97.86%. In the case of `C=C1CC[C@@H]2[C@](C)(CO)[C@H](O)CC[C@@]2(C)[C@@H]1C/C=C1/C(=O)OC[C@H]1O` [Andrographolide], the “% of control remaining” value is reported as 70.38%. With `NCCc1ccc(O)c(O)c1` [3-Hydroxytyramine hydrochloride] the “% of control remaining” value was 86.11%. `C/C=C(/C)C(=O)O[C@H]1[C@@H](OC(=O)CC(C)C)c2c(ccc3ccc(=O)oc23)OC1(C)C` [Praeruptorin E] was tested, and the “% of control remaining” value was 87.81%. With `COC(=O)C1=CO[C@@H](O)[C@@H]2C(CO)=CC[C@H]12` [Genipin] the “% of control remaining” value was 99.28%. With `COc1cc(-c2coc3cc4c(c(OC)c3c2=O)OCO4)cc(OC)c1OC` [Irisflorentin] the “% of control remaining” value was 66.38%. In the case of `CC(C)=CC[C@@H](O)C1=CC(=O)c2c(O)ccc(O)c2C1=O` [Shikonin], the “% of control remaining” value is reported as 107.55%. `O=c1cc(-c2ccccc2)oc2cc(O)c(O)c(O)c12` [Baicalein] was tested, and the “% of control remaining” value was 48.80%. For `CC(=O)O[C@]1(C(C)=O)CC[C@H]2[C@@H]3C[C@H](C)C4=CC(=O)CC[C@]4(C)[C@H]3CC[C@@]21C` [Medroxyprogesterone Acetate], the “% of control remaining” value was 68.77%. For `COc1cc(OC)c(CCC(=O)c2ccc(O)cc2)c(OC)c1` [Loureirin B], the “% of control remaining” value was 79.89%. For `CC(C)OC(=O)OCOP(=O)(CO[C@H](C)Cn1cnc2c(N)ncnc21)OCOC(=O)OC(C)C` [Tenofovir disoproxil], the “% of control remaining” value was 91.86%. `CC(=O)Nc1ccc(OC(=O)c2ccccc2OC(C)=O)cc1` [Benorilate] was tested, and the “% of control remaining” value was 76.99%. For `CC(=O)NC[C@H]1CN(c2ccc(N3CCOCC3)c(F)c2)C(=O)O1` [Linezolid], the “% of control remaining” value was 91.81%. `COc1cc(O)c2c(=O)cc(-c3ccc(OC)c(-c4c(O)cc(O)c5c(=O)cc(-c6ccc(O)cc6)oc45)c3)oc2c1` [Ginkgetin] was tested, and the “% of control remaining” value was 39.42%. For `N=C(N)NC(=O)c1nc(Cl)c(N)nc1N` [Amiloride hydrochloride], the “% of control remaining” value was 109.84%. In the case of `C=C1C(=O)[C@]23[C@H](O)[C@H]1CC[C@H]2[C@@]12CO[C@]3(O)[C@@H](O)[C@@H]1C(C)(C)CC[C@@H]2O` [Oridonin], the “% of control remaining” value is reported as 66.82%. In the case of `C[C@]12CCC(=O)C=C1CC[C@@H]1[C@@H]2[C@@H](O)C[C@@]2(C)[C@H]1CC[C@]2(O)C(=O)CO` [Hydrocortisone], the “% of control remaining” value is reported as 56.27%. In the case of `O=c1c(O)c(-c2ccc(O)cc2O)oc2cc(O)cc(O)c12` [Morin hydrate], the “% of control remaining” value is reported as 96.10%. With `CC[C@H]1CN2CC[C@@]3(C(=O)Nc4ccccc43)[C@@H]2C[C@@H]1/C(=C\OC)C(=O)OC` [Isorhynchophylline] the “% of control remaining” value was 87.99%. With `C[C@H]1O[C@@H](O[C@H]2[C@@H](O)C[C@H](O[C@H]3[C@@H](O)C[C@H](O[C@H]4CC[C@@]5(C)[C@H](CC[C@@H]6[C@@H]5C[C@@H](O)[C@]5(C)[C@@H](C7=CC(=O)OC7)CC[C@]65O)C4)O[C@@H]3C)O[C@@H]2C)C[C@H](O)[C@@H]1O` [Digoxin] the “% of control remaining” value was 99.51%. `Cc1c(O)c(C)c2c(c1O)C(=O)[C@H](Cc1ccc3c(c1)OCO3)CO2` [Methylophiopogonanone A] was tested, and the “% of control remaining” value was 80.44%. In the case of `CC(=O)CC(c1ccccc1)c1c(O)c2ccccc2oc1=O` (stereo not drawn) [Warfarin sodium], the “% of control remaining” value is reported as 84.05%. In the case of `O=C(O)c1cc(-c2ccc(F)cc2F)ccc1O` [Diflunisal], the “% of control remaining” value is reported as 118.03%. In the case of `COc1c(/C=C/C(=O)c2ccc(O)c(CC=C(C)C)c2)ccc(O)c1O` [Licochalcone D], the “% of control remaining” value is reported as 80.45%. With `CC(C)=CCOc1c2ccoc2cc2oc(=O)ccc12` [Isoimperatorin] the “% of control remaining” value was 72.90%. In the case of `Cc1ncc([N+](=O)[O-])n1CCO` [Metronidazole], the “% of control remaining” value is reported as 78.49%. In the case of `O=C(O)CCc1nc(-c2ccccc2)c(-c2ccccc2)o1` [Oxaprozin], the “% of control remaining” value is reported as 81.83%. `CCOC(=O)C1=C(COCCN)NC(C)=C(C(=O)OC)C1c1ccccc1Cl` (stereo not drawn) [Amlodipine] was tested, and the “% of control remaining” value was 85.85%. `COc1cc(-c2oc3cc(O)cc(O)c3c(=O)c2O[C@@H]2O[C@H](CO)[C@@H](O)[C@H](O)[C@H]2O)ccc1O` [Isorhamnetin-3-glucoside] was tested, and the “% of control remaining” value was 93.93%. `C=CC(=O)Nc1cc(Nc2nccc(-c3cn(C)c4ccccc34)n2)c(OC)cc1N(C)CCN(C)C` [AZD-9291] was tested, and the “% of control remaining” value was 92.69%. For `O=C1C=CC[C@@H]2[C@H]3CCC[N+]4([O-])CCC[C@@H](CN12)[C@@H]34` (stereo partly drawn) [Oxysophocarpine], the “% of control remaining” value was 98.58%. With `COC1=C[C@@H]2[C@@H]3Cc4ccc(OC)c(O)c4[C@]2(CCN3C)CC1=O` [Sinomenine] the “% of control remaining” value was 101.42%. In the case of `COc1ccc(-c2cc(=O)c3c(O)cc(O)c(-c4cc(-c5cc(=O)c6c(O)cc(O)cc6o5)ccc4OC)c3o2)cc1` [Isoginkgetin], the “% of control remaining” value is reported as 54.78%. With `C[C@@H]1C(=O)O[C@H]2[C@H](O)[C@@]34O[C@@H]5OC(=O)[C@H](O)[C@@]56[C@H](C(C)(C)C)[C@H](O)C(OC3=O)[C@]64[C@@]12O` (stereo partly drawn) [Ginkgolide C] the “% of control remaining” value was 106.22%. For `CN(C)CCOC(c1ccccc1)c1ccccc1` [Diphenhydramine Hydrochloride], the “% of control remaining” value was 88.58%.
